From patent publication US7645463B2, “Method for treating diabetic vascular complications” (National Yang-Ming University, priority 2006, dated 2010)
Marks after values point to notes of the source that are not given here.

System: Mouse Kupffer cell
Test: Phagocytosis assay of Kupffer cell (FITC-beads ingestion)
Type: cell-based
Settings: relative to control (2% FCS) = 1
Protocol: C57BL6/j mice were intraperitoneally (ip) injected with a mixture of Rompun® xylazine anesthesia and ketamin (S-(+)-ketamine) anesthesia mixed at a ratio of 1:3. The central vein of each mouse was cannulated with a polyethylene catheter, and the liver tissue was perfused with 10 ml Ca^2+-free HBSS buffer for 10 minutes at a perfusion rate of 1 ml/min, and HBSS buffer containing 0.05% collagenase type IV for 10 minutes at the perfusion rate of 1 mL/min to soften the liver tissue. The softened liver tissue was excised, rinsed and cut open by a pair of forceps to release cell suspension from the liver tissue. After the connective tissue was detached, the cell suspension was filtered with a #53 nylon mesh and centrifuged at 30 g for 3 minutes. The cell suspension was then centrifuged at 600 g for 5 minutes. The supernatant was discarded and the cell pellet was resuspended in 15 mL RBC lysis buffer and allowed a reaction to take place for 2 minutes. The cell suspension was added with 15 mL of RPMI 1640 medium and centrifuged, and the cell pellet was resuspended in 5 mL of RPMI 1640 medium and layered on top of a Percoll™ solution consisting of 25% (v/v) Percoll™ density gradient medium. The cell solution was centrifuged, and the cell pellet containing enriched Kupffer cells was collected. The enriched Kupffer cells were washed with RPMI 1640 medium and resuspended in serum-free RPMI 1640 medium.
Kupffer cells were seeded (4×10^5 cells/well) in a 96-well culture plate and cultured in RPMI medium supplemented with 10% FCS, also known as 10% FCS RPMI medium hereinafter, for at least 24 hours. The medium was changed to 2% FCS RPMI medium added with PH of different concentrations (1000 μg/mL, 100 μg/mL, 10 μg/mL and 1 μg/mL). […] FluoroQuench™ dye (0.5 μL/well) was added to quench the fluorescence from the […] 1 μm-sized FITC-beads. The fluorescence of the ingested 1 μm-sized FITC-beads was measured with a cytofluorometer after one hour and normalized with the fluorescence of the control group to determine the relative phagocytosis index as shown in Table 2.

## tuftsin
1 μg/ml
  Mouse Kupffer cell Ingestion phagocytosis Index: 1.49**
10 μg/ml
  Mouse Kupffer cell Ingestion phagocytosis Index: 1.2*
100 μg/ml
  Mouse Kupffer cell Ingestion phagocytosis Index: 1.01
